# Columns and labels:
# [1] = test system: H3K9me3 demethylase activity; experiment: Histone demethylase activity in tumor lysates by ELISA (H3K9me3); format: in vivo; details: H1299 T18 xenografts, drug-treated vs vehicle
# Text: (§1) To evaluate whether the targeted KDM enzymatic activity was reduced in the JmjC inhibitor-treated tumors in vivo, the inventors measured histone demethylase activity in drug-treated and vehicle-control tumor lysates by ELISA. […] Altogether, the results confirmed reduction of the targeted KDM enzymatic activity with cytostatic/cytotoxic effects in JmjC inhibitor-treated chemoresistant xenografts.
# [2] = test system: H1299 Parental xenografts; details: for final tumor burden (tumor weights) of combination / tumor growth inhibition of combination: combination with paclitaxel+carboplatin chemotherapy
# Method: (§2) Animals were housed under standard, sterile conditions at UTSW animal facility. All experiments were carried out under approved IACUC protocols and followed UTSW animal care procedures. For tumor growth rate studies and docetaxel+cisplatin drug response comparisons, 6-8 week old female NOD/SCID mice were used. For all subsequent in vivo drug response studies, 6 week old female athymic nude mice were used (Charles River Labs, Jackson Labs). Experimental details are provided in supplemental information.
# (§3) Parental and resistant NSCLC cell lines (1×10^6 cells in PBS or RPMI for H1299; 5×10^6 cells in PBS/matrigel for H1355 and HCC4017) were injected subcutaneously into the right flank of mice. Tumor growth was monitored by caliper measurements and tumor volume was calculated by 0.5×length×width^2). Treatment was started when tumors reached ˜150-200 mm3. Drug/Vehicle therapy was given to tumor volume matched pairs. Docetaxel (3 mg/kg) and cisplatin (3 mg/kg) were given i.p. once a week for 3 weeks. For JIB-04 studies, nude mice were randomized to receive either of 5, 20 or 50 mg/kg doses or vehicle, 3× per week for 2 weeks by gavage in 12.5% cremophor EL, 12.5% DMSO, aqueous suspension.
# H1299 T18 xenografts = details: for final tumor weights vs vehicle: GSK-J4 100 mg/kg 10 days, JIB-04 50 mg/kg; for tumor volume vs vehicle: GSK-J4 100 mg/kg every day 10 days, JIB-04 5, 20 or 50 mg/kg 3x per week 2 weeks by gavage
# Method: as §2, §3
# [3] = test system: H3K4me3 demethylase activity; experiment: Histone demethylase activity in tumor lysates by ELISA (H3K4me3); format: in vivo; details: H1299 T18 xenografts, drug-treated vs vehicle
# Text: as §1
# H1355 T16 xenografts = details: for toxicity in treated mice: mouse, in vivo
# Method: as §2
# as §3, with “For JIB-04 studies, nude mice were randomized to receive either of 5, 20 or 50 mg/kg doses or vehicle, 3× per week for 2 weeks by gavage in 12.5% cremophor EL, 12.5% DMSO, aqueous suspension.” left out
# H1299 T18 = experiment: MTS cell viability assay, H1299 T18 resistant variant vs H1299 Parental; format: cell-based, human; details: H1299 T18 vs H1299 Parental
# Method: NSCLC lines were treated with paclitaxel+carboplatin combination, given in a ˜2:3 wt/wt ratio, to mirror the clinical dosage values of ˜225 mg/m2 and ˜330 mg/m2, paclitaxel and carboplatin respectively. Note that considering the molecular weights of the two drugs, this translates to approximately a 1 to 3.4 molar ratio. Drugs were given in cycles, following a drug on/drug off treatment scheme. Each cycle consisted of 4-5 days of drug treatment and drug-free culturing for about 1-2 weeks or more to allow the surviving cells to repopulate the plate. […] Untreated parental cells were simultaneously maintained at all times for comparison. Cell viability was assessed in 96-well plates using standard MTS assays (Promega). Treatment duration in MTS assays was 4 days. Drugs were tested in two- or four-fold serial dilutions, totaling 8 different drug concentrations, with 8 replicates per concentration. Response was validated in multiple replicate plates (n≥3).
# Cell viability was assessed by standard MTS assays using Promega's CellTiter reagents. Eight drug concentrations given as two- or four-fold dilutions were tested for each chemotherapeutic agent. In addition, each experiment contained eight replicates per concentration and the entire assay was performed in multiple replicates (n≥3).
# [4] = test system: pro-apoptotic/anti-proliferative genes and proliferative/oncogenic genes; experiment: qRT-PCR of pro-apoptotic and proliferative genes in treated H1299 T18 cells; format: cell-based, human; details: 24 h; JIB-04 0.2 μM or GSK-J4 1 μM
# Text: Total RNA was isolated using RNeasy Plus Mini kit (Qiagen) and cDNA was generated using iScript cDNA synthesis kit (BioRad). For epigenetic enzymes, transcripts were detected by SYBR Green chemistry in real time quantitative PCR assays using validated primers. TBP and GAPDH were used as endogenous controls. […] For all non-epigenetic transcripts, TaqMan probes (Life Technologies) were utilized in multiplex with GAPDH internal reference gene. Additionally, a reference sample containing pooled RNA from normal human and tumor tissues (Stratagene) was used. PCR reactions were run using the ABI 7300 Real-time PCR System and analyzed with the included software. The comparative CT method was used to compute relative mRNA expression.
# H1299 T18 cells = experiment: Microarray gene expression after 24 h treatment, H1299 T18 cells; format: cell-based, human; details: for expression difference of top up-regulated gene / gene expression changes (total probes): 24 h; for expression difference of top up-regulated gene / gene expression changes (total probes) / Illumina probes reversed in expression / genes reversed in expression: 0.2 μM JIB-04 or 1 μM GSK-J4; for gene expression changes (total probes): fold changes ≥1.5, P ≤0.05; for Illumina probes reversed in expression / genes reversed in expression: reversal of changes acquired with taxane-platin resistance
# Method: Gene expression profiling was performed using Illumina HumanWG-6 V3 BeadArrays (for NSCLC patient tumors) or Illumina HumanHT-12 V4 BeadArrays (for cell lines and xenografts). […] Data were pre-processed using the R package mbcb for background correction (Ding et al., 2008), then log-transformed and quantile-normalized with the R package preprocessCore or using in-house MATRIX software ([…]). Microarray data can be found under GEO accession GSE77209. Log ratios, unpaired t-test p values and color-coded heat maps were obtained using MATRIX. For comparisons involving progressively resistant cell line series, analyses were performed using R package by fitting linear regression model on gene expression data against the log transformed IC50 values as measures of drug response. We fitted beta-uniform mixture model to a set of p-values using the R package ClassComparison. […] For xenograft data, differential gene expression analysis was performed by student's t-test. Using 35 gene signature, unsupervised hierarchical clustering (Eisen et al., 1998) was performed to separate neoadjuvant chemotherapy treated patients into two groups. Clustering was based on Euclidean distance matrix and maximum linkage method. Kaplan-Meier survival analysis and multivariate Cox regression were performed by R survival package and replotted using Graphpad Prism 6.00 (GraphPad Software, La Jolla, Calif. USA). R code is provided in […] report.
# [5] = from non-linear regression/exponential growth curves
smiles,measurement,setting,value
Clc1ccc(N/N=C(\c2ccccc2)c2ccccn2)nc1 [JIB-04],H3K9me3 demethylase activity in tumor lysates,[1],significantly inhibited
same,tumor volume vs vehicle,"[2]; GSK-J4 100 mg/kg every day 10 days, JIB-04 5, 20 or 50 mg/kg 3x per week 2 weeks by gavage",significantly reduced tumor burden
same,final tumor burden (tumor weights) of combination,[2],significant reduction in final tumor burden compared to either therapy alone
same,tumor growth inhibition of combination,[2],significantly greater tumor growth inhibition than single agents
same,change in tumor doubling time,[2]; [5],< 25%
same,final tumor weights vs vehicle,H1299 T18 xenografts,significant decrease in final tumor weights
same,tumor volume vs vehicle,H1299 T18 xenografts,greater percent reduction in final tumor volumes
same,increase in tumor doubling time,H1299 T18 xenografts; [5],69%
same,% Ki67+ cells in tumors (IHC),"H1299 T18 xenografts; mouse, in vivo",reduction of % Ki67+ cells
same,cleaved caspase 3 staining in tumors (IHC),"H1299 T18 xenografts; mouse, in vivo",focally increased cleaved caspase 3 staining
same,H3K4me3 demethylase activity in tumor lysates,[3],significantly inhibited
same,change in tumor volume relative to treatment start,"H1355 T16 xenografts; GSK-J4 100 mg/kg i.p. 5x per week, JIB-04 50 mg/kg oral gavage 3x per week, 4 weeks",significant tumor shrinkage
same,toxicity in treated mice,H1355 T16 xenografts,No appreciable toxicity
same,sensitivity of resistant variant compared to parental cells,H1299 T18,several-fold hyper-sensitized
same,H1299 T18 SR (Selectivity Ratio),H1299 T18; SR = [IC50 of Parental]/[IC50 of Resistant],20.3
same,pro-apoptotic/anti-proliferative gene expression,[4],up-regulated
same,proliferative/oncogenic gene expression,[4],downregulated
same,expression difference of top up-regulated gene,H1299 T18 cells,~16 fold
same,gene expression changes (total probes),H1299 T18 cells,1469 probes
same,"top reversed down-regulated gene, fold change (down)","H1299 T18 cells; LEAP2 for JIB-04, TAF9B for GSK-J4",~5 fold
same,"top reversed up-regulated gene, fold change (up)","H1299 T18 cells; YPEL2 for JIB-04, BNIP3 for GSK-J4",~16 fold
same,Illumina probes reversed in expression,H1299 T18 cells,About 195 probes
same,genes reversed in expression,H1299 T18 cells,187 genes
CCOC(=O)CCNc1cc(N2CCc3ccccc3CC2)nc(-c2ccccn2)n1 [GSK-J4],H3K9me3 demethylase activity in tumor lysates,[1],without reducing H3K4me3 or H3K9me3 demethylase activity
same,final tumor weights vs vehicle,[2]; GSK-J4 100 mg/kg 10 days,no significant drug-induced decrease
same,final tumor burden (tumor weights) of combination,[2],significant reduction in final tumor burden compared to either therapy alone
same,tumor growth inhibition of combination,[2],significantly greater tumor growth inhibition than single agents
same,final tumor weights vs vehicle,H1299 T18 xenografts,significant decrease in final tumor weights
same,tumor volume vs vehicle,H1299 T18 xenografts,significant reduction in average tumor volume
same,% γH2AX+ cells in tumors (IHC),"H1299 T18 xenografts; mouse, in vivo",increased the % γH2AX+ cells
same,cleaved caspase 3 staining in tumors (IHC),"H1299 T18 xenografts; mouse, in vivo",focally increased cleaved caspase 3 staining
same,H3K4me3 demethylase activity in tumor lysates,[3],without reducing H3K4me3 or H3K9me3 demethylase activity
same,toxicity in treated mice,H1355 T16 xenografts,No appreciable toxicity
same,sensitivity of resistant variant compared to parental cells,H1299 T18,higher sensitivity
same,pro-apoptotic/anti-proliferative gene expression,[4],up-regulated
same,proliferative/oncogenic gene expression,[4],downregulated
same,expression difference of top up-regulated gene,H1299 T18 cells,~25 fold
same,gene expression changes (total probes),H1299 T18 cells,710 probes
same,Illumina probes reversed in expression,H1299 T18 cells,110 probes
same,genes reversed in expression,H1299 T18 cells,108 genes
